Source: US7812177B2, “Potassium channel opener having benzofuroindole skeleton” (Anygen Co., Ltd., priority 2005, dated 2010)
“Also recorded” adds a separate entry of the source.

What was measured:
BKCa channel = BKCa channel (Homo sapiens, UniProt Q12791); details: similar assay system, same concentration (20 μM); cited from earlier work
[1] = Solubility in water (highest obtainable concentration); type: physicochemical; details: read-out: highest obtainable concentration because of solubility in water
Procedure: (§1) We then measured the concentration-dependence of compound 8 of the present invention. […] Although we were not able to obtain a concentration of compound 8 higher than 300 μM because of its solubility in water, we noticed that compound 8-induced current increases reached plateau levels at around 100 μM. […] We also measured the effects of compound 8 using inside-out patch configuration to determine whether this compound also affects channel activity from the intracellular side. The intracellular Ca^2+ concentration was fixed at 2 μM to activate rSlo channels, and different concentrations of compound 8 were added to the intracellular side of the membrane.

rSlo channel [2] = biological target: T1, rSlo channel (Rattus norvegicus, UniProt Q62976); experiment: Concentration-dependence of channel opening, compound applied to the extracellular side of membrane patches; type: cell-based; details: extracellular application
T1 construct: expressed in transfected cells; host or cells: Xenopus laevis oocytes
T1 sequence (Q62976 whole entry): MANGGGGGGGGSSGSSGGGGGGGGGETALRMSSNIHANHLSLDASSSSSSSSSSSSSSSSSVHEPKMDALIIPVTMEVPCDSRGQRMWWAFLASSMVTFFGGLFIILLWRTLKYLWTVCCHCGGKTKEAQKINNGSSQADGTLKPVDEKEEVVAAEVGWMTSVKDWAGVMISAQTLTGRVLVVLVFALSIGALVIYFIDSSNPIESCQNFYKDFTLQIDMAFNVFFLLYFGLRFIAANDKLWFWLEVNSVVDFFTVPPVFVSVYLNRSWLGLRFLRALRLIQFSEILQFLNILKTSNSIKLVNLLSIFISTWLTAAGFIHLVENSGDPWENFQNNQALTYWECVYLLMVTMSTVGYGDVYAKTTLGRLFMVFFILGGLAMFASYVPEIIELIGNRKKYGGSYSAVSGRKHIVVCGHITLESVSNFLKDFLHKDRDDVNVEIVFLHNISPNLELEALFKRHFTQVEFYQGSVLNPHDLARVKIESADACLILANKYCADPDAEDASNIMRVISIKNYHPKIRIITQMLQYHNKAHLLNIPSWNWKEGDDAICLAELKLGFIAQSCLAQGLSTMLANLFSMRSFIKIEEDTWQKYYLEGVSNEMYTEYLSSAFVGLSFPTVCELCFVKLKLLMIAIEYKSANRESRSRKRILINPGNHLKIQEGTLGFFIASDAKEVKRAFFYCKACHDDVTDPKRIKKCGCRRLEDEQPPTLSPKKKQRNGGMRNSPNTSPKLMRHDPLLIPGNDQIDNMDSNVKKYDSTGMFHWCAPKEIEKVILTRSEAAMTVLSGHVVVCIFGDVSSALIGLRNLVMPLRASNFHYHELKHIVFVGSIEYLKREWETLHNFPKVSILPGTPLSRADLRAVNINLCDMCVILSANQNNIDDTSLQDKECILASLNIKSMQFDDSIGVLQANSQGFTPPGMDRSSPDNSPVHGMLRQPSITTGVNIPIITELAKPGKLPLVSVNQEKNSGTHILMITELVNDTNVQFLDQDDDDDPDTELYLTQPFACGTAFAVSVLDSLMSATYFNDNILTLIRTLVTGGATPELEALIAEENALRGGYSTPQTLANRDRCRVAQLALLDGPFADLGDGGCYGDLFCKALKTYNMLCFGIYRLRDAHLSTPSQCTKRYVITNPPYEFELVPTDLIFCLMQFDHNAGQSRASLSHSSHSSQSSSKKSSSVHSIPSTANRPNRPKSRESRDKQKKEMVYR
From the text: FIG. 6 illustrates concentration-dependence activity of compound 8 on BKCa channel. FIG. 6A illustrates concentration-dependence activity of rSlo channel. FIG. 6B illustrates concentration-dependence activity of rSlo channel combined with human β1. FIG. 6C illustrates concentration-dependence activity of rSlo channel combined with rat β4 subunit.
as §1

[3] = biological target: T2, cloned α subunit of rat BKCa channels, rSlo (Rattus norvegicus, UniProt Q62976); experiment: Excised outside-out voltage clamp recording, fold increase of BKCa channel currents by extracellularly applied compounds; type: cell-based; details: extracellular treatment at 20 μM; outside-out patch, Xenopus laevis oocytes expressing rSlo
T2 construct: expressed in transfected cells; host or cells: Xenopus laevis oocytes
T2 sequence (Q62976 whole entry): as above
Procedure: FIG. 3 illustrates relative fold-increase of BKCa channel activity by extracellularly applied benzofuroindole analogues of present invention. Bar graphs represent fold increases in BKCa channel currents evoked by extracellular treatment of various compounds at 20 μM.
The biological activity of compounds 7˜23 to open BKCa channels and increase the BKCa channel currents was determined by using excised outside-out voltage clamp recording from Xenopus laevis oocytes expressing cloned α subunit of rat BKCa channels, rSlo.

rSlo channel [4] = biological target: T1, rSlo channel; experiment: Concentration dependence on macroscopic rSlo channel activity expressed in Xenopus oocytes, Hill fit; type: cell-based
Procedure: FIG. 5 illustrates concentration-dependence of compound 22 on BKCa channel. Data points were fitted with Hill equation.
We performed experiments to determine the concentration dependence for the effect of compound 22 on macroscopic rSlo channel activity expressed in Xenopus oocytes.
Currents were recorded from excised outside-out patches before and after the addition of seven different concentrations of compound 22, from 0 to 300 μM. Channel activity of rSlo was elicited after patch excision with 2 μM intracellular Ca^2+ and increased rapidly with the addition of compound 22. Membrane potential was held at −120 mV and stepped to 50 mV for 50 ms. Relative current differences were determined from the currents of control activated with 2 μM of intracellular Ca^2+ and voltage at 50 mV, normalized with control currents and the obtained data points were fitter with a Hill equation (FIG. 5).

rSlo channel [5] = biological target: T1, rSlo channel; experiment: Potentiating effect on rSlo channels at various intracellular Ca2+ concentrations, outside-out patch; type: cell-based; details: 20 μM extracellular
Procedure: FIG. 4 illustrates potency of extracellularly applied compound 22 on rSlo channels in various intracellular Ca^2+ concentrations. Representative raw-traces were shown at different intracellular Ca^2+ concentrations. Intracellular Ca^2+ concentration was increased from Ca^2+-free (A), 0.5 μM (B), 1 μM (C) and 2 μM (D). The concentration of compound 22 was 20 μM on the extracellular side.
To investigate the potentiating effect of compound 22 on rSlo channels at various intracellular Ca^2+ concentrations, rSlo channels were activated in different concentrations of intracellular Ca^2+.
Excised outside-out patch configurations were obtained by making a gigaohm seal, rupturing the membrane pulling the pipette from oocytes. Both of the bath and pipette contained symmetrical 124 mM K^+ ions. Voltage pulses were applied to activate rSlo channel currents from −120 mV to 140 mV in 10 mV increments and intracellular Ca^2+ concentrations were used to activate rSlo channel from 0 (Ca^2+-free solution was to chelate with 5 mM EGTA) to 2 μM in intracellular side.
The representative raw-traces of rSlo channel activated by membrane voltages and intracellular Ca^2+ (FIG. 4). rSlo channel currents were recorded before and after the addition of 20 μM of compound 22.

Sequence of BKCa channel (Q12791 whole entry): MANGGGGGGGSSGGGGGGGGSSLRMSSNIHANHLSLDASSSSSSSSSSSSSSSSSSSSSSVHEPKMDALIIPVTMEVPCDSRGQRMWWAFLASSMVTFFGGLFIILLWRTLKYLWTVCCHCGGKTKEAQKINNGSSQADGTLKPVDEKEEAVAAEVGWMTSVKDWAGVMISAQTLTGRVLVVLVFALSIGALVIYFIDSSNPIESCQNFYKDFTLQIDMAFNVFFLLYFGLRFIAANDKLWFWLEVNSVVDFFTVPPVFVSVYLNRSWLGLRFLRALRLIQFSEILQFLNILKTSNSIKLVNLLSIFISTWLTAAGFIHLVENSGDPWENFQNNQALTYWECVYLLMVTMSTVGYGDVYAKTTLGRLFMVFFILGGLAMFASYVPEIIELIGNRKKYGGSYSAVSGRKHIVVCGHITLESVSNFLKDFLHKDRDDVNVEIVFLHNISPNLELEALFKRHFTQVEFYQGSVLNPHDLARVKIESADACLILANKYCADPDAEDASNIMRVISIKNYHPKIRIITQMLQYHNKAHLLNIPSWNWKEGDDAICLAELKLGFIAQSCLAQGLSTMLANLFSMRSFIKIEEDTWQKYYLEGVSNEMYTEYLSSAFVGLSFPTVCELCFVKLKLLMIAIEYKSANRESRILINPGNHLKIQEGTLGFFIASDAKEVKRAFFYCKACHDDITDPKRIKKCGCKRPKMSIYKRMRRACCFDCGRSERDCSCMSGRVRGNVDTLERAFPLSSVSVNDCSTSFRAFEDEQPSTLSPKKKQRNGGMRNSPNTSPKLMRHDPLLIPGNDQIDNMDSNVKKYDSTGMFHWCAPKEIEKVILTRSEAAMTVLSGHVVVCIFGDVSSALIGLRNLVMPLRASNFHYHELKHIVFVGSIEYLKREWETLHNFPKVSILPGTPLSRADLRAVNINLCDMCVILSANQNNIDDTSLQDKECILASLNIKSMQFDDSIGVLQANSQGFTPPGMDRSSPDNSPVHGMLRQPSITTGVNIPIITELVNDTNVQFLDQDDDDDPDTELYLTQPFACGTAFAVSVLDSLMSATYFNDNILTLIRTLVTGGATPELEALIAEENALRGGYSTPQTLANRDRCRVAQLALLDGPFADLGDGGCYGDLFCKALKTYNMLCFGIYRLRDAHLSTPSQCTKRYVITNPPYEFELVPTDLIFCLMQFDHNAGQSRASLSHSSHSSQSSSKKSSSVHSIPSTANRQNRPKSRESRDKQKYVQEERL

In the case of COc1ccc(Cl)cc1[C@]1(F)C(=O)Nc2cc(C(F)(F)F)ccc21 [BMS-204352], the reported fold increase (BKCa channel) is listed as “around 1.5”.

In the case of COc1ccc(Cl)cc1-c1c(CCO)c(=O)[nH]c2ccc(C(F)(F)F)cc12 [Compound 2], the reported fold increase (BKCa channel) is listed as ~3.7.

With O=C(O)c1cccc2c1[nH]c1c3ccc(C(F)(F)F)cc3oc21 [Compound 8, 7-Trifluoromethyl-10H-benzo[4,5]furo[3,2-b]indole-1-carboxylic acid] the solubility [1] was ≤ 300 µM and the EC50 (rSlo channel [2]) was 8.9 ± 1.5 µM.

In the case of FC(F)(F)c1ccc2c(c1)oc1c3ccc(Cl)c(Cl)c3[nH]c21 [Compound 18, 1,2-Dichloro-7-trifluoromethyl-10H-benzo[4,5]furo[3,2-b]indole], the “fold increase of BKCa channel currents” value [3] is reported as “activity near to the basal level”.

With FC(F)(F)c1ccc2c(c1)oc1c2[nH]c2cc(Cl)cc(Cl)c21 [Compound 19, 2,4-Dichloro-7-trifluoromethyl-10H-benzo[4,5]furo[3,2-b]indole] the “fold increase of BKCa channel currents” value [3] was “activity near to the basal level”.

For O=C(O)c1ccc(Cl)c2c1[nH]c1c3ccc(C(F)(F)F)cc3oc12 [Compound 22, 4-Chloro-7-trifluoromethyl-10H-benzo[4,5]furo[3,2-b]indole-1-carboxylic acid], the “effect on rSlo current over concentration range” value (rSlo channel [4]; 50 nM to 300 μM) was “enhanced rSlo current in a concentration dependent manner”, the Kd (rSlo channel [4]; 2 μM intracellular Ca2+, step to 50 mV, N=5, read-out: Kd, apparent dissociation constant (Hill fit)) was 4.01 ± 0.75 µM and the “reversibility of enhanced rSlo current by washout” value (rSlo channel [5]; all tested intracellular Ca2+ concentrations) was “could be removed by washout”. The “effect on rSlo channel current” value (rSlo channel [5]; intracellular Ca2+ from Ca2+-free to 2 μM) was “markedly significant effects on rSlo channel current; also recorded: intracellular Ca^2+ concentrations do not affect the potentiating effect” and the “fold increase of BKCa channel currents” value [3] was “more than 6 fold”.

With O=C(O)c1cc(Cl)cc2c1[nH]c1c3ccc(C(F)(F)F)cc3oc21 [Compound 23, 3-Chloro-7-trifluoromethyl-10H-benzo[4,5]furo[3,2-b]indole-1-carboxylic acid] the “fold increase of BKCa channel currents” value [3] was “close but not better channel opening activity than compound 22”.
